Source: paper PMC5742828, “α-Glucosidase and Protein Tyrosine Phosphatase 1B Inhibitory Activity of Plastoquinones from Marine Brown Alga Sargassum serratifolium” (Marine Drugs, 2017)

Experiments:
Format in all cases: biochemical
[1] = system: bovine serum albumin (BSA); assay: Inhibition of ONOO−-mediated albumin nitration (western blot, 3-nitrotyrosine antibody); conditions: ONOO− 200 µM
Description: Figure 5 Dose-depended inhibition of ONOO^−-mediated albumin nitration by plastoquinones. Mixtures of test samples, bovine serum albumin (BSA), and ONOO^− were incubated with shaking at 37 °C for 30 min. The reactant was resolved in 10% polyacrylamide gel via electrophoresis. (a) sargahydroquinoic acid; (b) sargachromenol; and (c) sargaquinoic acid were used at the indicated concentrations; (d) Quantification of band intensity was calculated using CS Analyzer 3.00 (ATTO Corp., Tokyo, Japan). ^# p < 0.05 indicates a significant difference from the untreated normal group, * p < 0.05 indicate significant differences from the ONOO^− treated control.
The inhibition of ONOO^–-mediated nitrated albumin was evaluated using the method of Aulak et al.. Samples were added to bovine serum albumin (BSA) and mixed with ONOO^− (200 µM). After 10 min incubation (room temperature), the sample solution was added to Bio-Rad 2X Laemmli Sample buffer with mercaptoethanol and then boiled for 7 min. The reactant was resolved in 10% polyacrylamide gel via electrophoresis and transferred onto PVDF membranes. Pre-stained blue protein markers were used for molecular weight determination. Monoclonal anti-nitrotyrosine antibody (85 kDa) was used as a primary antibody and horseradish peroxidase-conjugated sheep anti-mouse secondary antibody was used as a secondary antibody. Antibody labeling was visualized using the Supersignal West Pico Chemiluminescent substrate (Pierce Chemical Co., Rockford, IL, USA). Densitometric analysis of the western blot results was determined using CS analyzer v3.00 (ATTO Corp.).

[2] = molecular target: T1, PTP1B (human recombinant) (Homo sapiens, UniProt P18031); assay: Kinetic study against PTP1B (Dixon plots); conditions: Dixon plot; pNPP 0.5, 1.0, 2.0 mM
T1 construct: purchased Biomol International LP (Plymouth Meeting, PA, USA)
T1 sequence (P18031 1-435): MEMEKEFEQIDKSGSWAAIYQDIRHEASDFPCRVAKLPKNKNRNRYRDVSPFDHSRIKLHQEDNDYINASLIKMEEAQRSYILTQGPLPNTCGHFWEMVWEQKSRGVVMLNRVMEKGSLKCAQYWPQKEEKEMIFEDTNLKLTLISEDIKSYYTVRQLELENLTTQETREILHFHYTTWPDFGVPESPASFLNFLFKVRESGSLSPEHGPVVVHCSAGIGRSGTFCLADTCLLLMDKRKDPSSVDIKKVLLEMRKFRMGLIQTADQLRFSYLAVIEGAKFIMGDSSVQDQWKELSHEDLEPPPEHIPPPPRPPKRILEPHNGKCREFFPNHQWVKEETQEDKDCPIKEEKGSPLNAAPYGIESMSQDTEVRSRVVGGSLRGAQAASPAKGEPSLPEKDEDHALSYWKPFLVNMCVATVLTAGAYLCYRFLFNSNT
Description: (§1) In an attempt to explain the mode of enzymatic inhibition of sargahydroquinoic acid, sargachromenol, and sargaquinoic acid, kinetic analysis was performed at different concentrations of the substrate (pNPP for PTP1B and pNPG for α-glucosidase) and inhibitor.
Figure 3 Dixon plots for PTP1B inhibition of compounds. (a) sargahydroquinoic acid; (b) sargachromenol and (c) sargaquinoic acid were tested in the presence of different concentrations of substrate: 2.0 mM (●); 1.0 mM (ο); 0.5 mM (▼).
(§2) To determine the modes of enzyme inhibition, Dixon plots were used. The kinetic analyses were performed at different concentrations of substrate (0.625, 1.25, and 2.5 mM pNPG for α-glucosidase; 0.5, 1.0, and 2.0 mM pNPP for PTP1B) and various concentrations of plastoquinones (0, 0.4, 2.0, and 10.0 µM for PTP1B and 0, 25, 50 and 100 µM for α-glucosidase, respectively). Enzymatic inhibition of the test plastoquinones was evaluated by monitoring the effects of different concentrations of the substrate in the Dixon plots (single reciprocal plots). The enzymatic procedure consisted of the same aforementioned assay method. The inhibition constants (Ki) were determined via interpretation of the Dixon plots, where the value of the x-axis implies -Ki.

[3] = molecular target: Yeast α-glucosidase (Saccharomyces cerevisiae, UniProt P53341); assay: Kinetic study against α-glucosidase (Dixon plots); conditions: Dixon plot; pNPG 0.625, 1.25, 2.5 mM
Yeast α-glucosidase, sequence (P53341 whole entry): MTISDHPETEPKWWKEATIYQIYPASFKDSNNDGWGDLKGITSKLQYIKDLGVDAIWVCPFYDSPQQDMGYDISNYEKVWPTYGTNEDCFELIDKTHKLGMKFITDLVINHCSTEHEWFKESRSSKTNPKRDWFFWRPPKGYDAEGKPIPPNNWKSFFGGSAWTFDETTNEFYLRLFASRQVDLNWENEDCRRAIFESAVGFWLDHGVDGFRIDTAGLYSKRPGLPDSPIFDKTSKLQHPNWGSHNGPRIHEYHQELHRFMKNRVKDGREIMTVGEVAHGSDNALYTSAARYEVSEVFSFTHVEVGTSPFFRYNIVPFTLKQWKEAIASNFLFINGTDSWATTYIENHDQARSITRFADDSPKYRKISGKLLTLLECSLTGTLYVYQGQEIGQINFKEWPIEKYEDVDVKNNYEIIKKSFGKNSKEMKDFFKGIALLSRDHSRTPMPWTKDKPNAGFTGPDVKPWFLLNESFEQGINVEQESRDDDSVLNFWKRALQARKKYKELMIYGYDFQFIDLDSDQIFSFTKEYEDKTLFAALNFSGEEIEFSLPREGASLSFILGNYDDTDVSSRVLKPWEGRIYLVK
Description: as §1
Figure 4 Dixon plots for α-glucosidase inhibition of compounds. (a) sargachromenol and (b) sargaquinoic acid were tested in the presence of different concentrations of substrate: 2.5 mM (●); 1.25 mM (ο); 0.625 mM (▼).
as §2

[4] = molecular target: T1, PTP1B (human recombinant); assay: PTP1B inhibitory assay (pNPP substrate); conditions: log-dose inhibition curve; mean ± SEM of triplicate experiments
Description: Dithiothreitol (DTT) was purchased from Bio-Rad Laboratories (Hercules, CA, USA) and PTP1B (human recombinant) was purchased from Biomol International LP (Plymouth Meeting, PA, USA). ONOO^− was purchased from Molecular Probes Cayman (Ann Arbor, MI, USA). All other chemicals and solvents used were purchased from E. Merck, Fluka, and Sigma-Aldrich, unless otherwise stated. The PTP1B inhibitory activities of the plastoquinones were evaluated using pNPP [68]. Recombinant PTP1B enzyme (0.5 units diluted with a PTP1B reaction buffer) was added with or without sample. The plate was pre-incubated at 37 °C for 10 min and then substrate (2 mM pNPP) was added. Following incubation at 37 °C for 15 min, the enzymatic reaction was terminated by the addition of 10 M NaOH.

| Ki [2] [µM] | PTP1B Inhibition Type [2] | α-Glucosidase Inhibition Type [3] | IC50 [4] [µM] | Structure (SMILES) | Inhibition of ONOO−-mediated albumin nitration ([1]; pretreatment at 2.5–10 μM) | Inhibition of ONOO−-mediated albumin nitration ([1]; pretreatment at 5–25 μM) |
| --- | --- | --- | --- | --- | --- | --- |
| 5.85 | Non-competitive | Non-competitive | 11.8 ± 3.35 | CC(C)=CCC/C(=C/CC/C(C)=C/CCC1(C)C=Cc2cc(O)cc(C)c2O1)C(=O)O (centres unmarked) [Sargachromenol, sargachromenol] | strong inhibition |  |
| 2.21 | Mixed |  | 5.14 ± 0.07 | CC(C)=CCC/C(=C/CC/C(C)=C/CC/C(C)=C/Cc1cc(O)cc(C)c1O)C(=O)O [Sargahydroquinoic acid, sargahydroquinoic acid] |  | markedly dose-dependent inhibition |
| 5.2 | Mixed | Mixed | 14.15 ± 0.02 | CC(C)=CCC/C(=C/CC/C(C)=C/CC/C(C)=C/CC1=CC(=O)C=C(C)C1=O)C(=O)O [Sargaquinoic acid, sargaquinoic acid] |  | markedly dose-dependent inhibition |
